Holding throughout (assay type): cell-based
For assay [1], the system named is HTT mRNA, canonical junction (CJ). The assay is described as follows: Splicing assay (RT-qPCR): decrease in HTT canonical junction (CJ) mRNA. The conditions noted are these: A673 or K562 cell line, 24 hours treatment, top dose 10 uM; concentration having 50% response in CJ decrease. On the procedure:
(§1) Compounds described herein were used to modulate RNA transcript abundance in cells. The expression of a target mRNA was measured by detecting the formation of an exon-exon junction in the canonical transcript (CJ). A compound mediated exon-inclusion event was detected by observing an increase in formation of a new junction with an alternative exon (AJ). Real-time qPCR assays were used to detect these splicing switches and interrogate the potency of various compounds towards different target genes. A high-throughput real time quantitative PCR (RT-qPCR) assay was developed to measure these two isoforms of the mRNA (CJ and AJ) for an exemplary gene, HTT, together with a control housekeeping gene, GAPDH or GUSB or PPIA, used for normalization. Briefly, the A673 or K562 cell line was treated with various compounds described herein (e.g., compounds of Formula (I)). After treatment, the levels of the HTT mRNA targets were determined from each sample of cell lysate by cDNA synthesis followed by qPCR.
(§2) • Cells-to-CT 1-step kit: ThermoFisher A25602, Cells-to-CT lysis reagent: ThermoFisher 4391851C, TaqMan™ Fast Virus 1-Step Master Mix: ThermoFisher 4444436 • GAPDH: VIC-PL, ThermoFisher 4326317E (Assay: Hs99999905_ml)—used for K562/suspension cell lines • GUSB: VIC-PL, ThermoFisher 4326320E (Assay: Hs99999908_ml)—used for K562/suspension cell lines • PPIA: VIC-PL, ThermoFisher 4326316E (Assay: Hs99999904_ml)—used for A673/adherent cell lines
(§3) The A673 cell line was cultured in DMEM with 10% FBS. Cells were diluted with full growth media and plated in a 96-well plate (15,000 cells in 100 ul media per well). The plate was incubated at 37° C. with 5% CO2 for 24 hours to allow cells to adhere. An 11-point 3-fold serial dilution of the compounds was made in DMSO then diluted in media in an intermediate plate. Compounds were transferred from the intermediate plate to the cell plate with the top dose at a final concentration of 10 uM in the well. Final DMSO concentration was kept at or below 0.25%. The cell plate was returned to the incubator at 37° C. with 5% CO2 for an additional 24 hours.
(§4) The K562 cell line was cultured in IMDM with 10% FBS. For K562, cells were diluted with full growth media and plated in either a 96-well plate (50,000 cells in 50 uL media per well) or a 384-well plate (8,000-40,000 cells in 45 uL media per well). An 11-point 3-fold serial dilution of the compounds were made in DMSO then diluted in media in an intermediate plate. Compound was transferred from the intermediate plate to the cell plate with the top dose at a final concentration of 10 uM in the well. Final DMSO concentration was kept at or below 0.25%. Final volume was 100 uL for 96-well plate and 50 uL for 384-well plate. The cell plate was then placed in an incubator at 37° C. with 5% CO2 for 24 hours.
(§5) The cells were then gently washed with 50 uL-100 uL cold PBS before proceeding to addition of lysis buffer. 30 uL-50 uL of room temperature lysis buffer with DNAse I (and optionally RNAsin) was added to each well. Cells were shaken/mixed thoroughly at room temperature for 5-10 minutes for lysis to take place and then 3 uL-5 uL of room temperature stop solution was added and wells were shaken/mixed again. After 2-5 minutes, the cell lysate plate was transferred to ice for RT-qPCR reaction setup. The lysates could also be frozen at −80° C. for later use.
(§6) In some cases, a direct lysis buffer was used. An appropriate volume of 3× lysis buffer (10 mM Tris, 150 mM NaCl, 1.5%-2.5% Igepal and 0.1-1 U/uL RNAsin, pH 7.4) was directly added to either K562 or A673 cells in media and mixed by pipetting 3 times. The plates were then incubated at room temperature with shaking/rocking for 20-50 minutes to allow for lysis to take place. After this time, the cell lysate plate was transferred to ice to set up for the RT-qPCR reactions. The lysates could also be frozen at −80° C. for later use. […]
For orientation: Real-time PCR tracks product formation cycle by cycle.

Assay [2] relates to HTT mRNA, alternative junction (AJ). Nature of the assay: Splicing assay (RT-qPCR): increase in HTT alternative junction (AJ) mRNA. The conditions noted are these: A673 or K562 cell line, 24 hours treatment, top dose 10 uM; concentration having 50% response in AJ increase. On the procedure: as §1, §2, §3, §4, §5, §6
A further assay has as its system Target C CJ mRNA. The assay is described as follows: Gene panel canonical junction qPCR assay: decrease in Target C CJ mRNA. The settings on record: protocol as for Table 2, read-out: Target C (IC50, decrease in CJ mRNA levels). How it is done: as §1, §3, §4, §5
(§7) In some cases, a direct lysis buffer was used. An appropriate volume of 3× lysis buffer (10 mM Tris, 150 mM NaCl, 1.5%-2.5% Igepal and 0.1-1 U/uL RNAsin, pH 7.4) was directly added to either K562 or A673 cells in media and mixed by pipetting 3 times. The plates were then incubated at room temperature with shaking/rocking for 20-50 minutes to allow for lysis to take place. After this time, the cell lysate plate was transferred to ice to set up for the RT-qPCR reactions. The lysates could also be frozen at −80° C. for later use.
(§8) To set up 10 uL RT-qPCR reactions, cell lysates were transferred to 384-well qPCR plates containing the master mix according to the table below. The plates were sealed, gently vortexed, and spun down before the run. The volumes were adjusted accordingly in some instances where the reaction was carried in 20 uL. The table below summarizes the components of the RT-qPCR reactions:
(§9) The RT-qPCR reaction was performed using a QuantStudio (ThermoFisher) under the following fast cycling conditions. […]

Another assay has as its system SMN2 CJ mRNA. The assay is described as follows: Gene panel canonical junction qPCR assay: decrease in SMN2 CJ mRNA. The settings on record: protocol as for Table 2, read-out: SMN2 (IC50, decrease in CJ mRNA levels). On the procedure:
as §1, §3, §4, §5, §7, §8, §9

Another assay has as its system HTT CJ mRNA. Nature of the assay: Gene panel canonical junction qPCR assay: decrease in HTT CJ mRNA. The settings on record: protocol as for Table 2, read-out: HTT (IC50, decrease in CJ mRNA levels). On the procedure: as §1, §3, §4, §5, §7, §8, §9

Molecules are shown by their SMILES. Where a name gives a salt, the structure may show the parent alone.

A word on the AC50: it is the midpoint of the concentration-response curve, whichever way the signal moves. High values mean activity only at high concentration, low ones activity at low concentration. Broadly, the IC50 is the midpoint of a concentration-inhibition curve.

Regarding `Cc1cn2cc(NC(=O)c3ccc(N4CCNC(C)(C)C4)c4ccnnc34)cc(F)c2n1` [Compound 106, 5-(3,3-dimethylpiperazin-1-yl)-N-[8-fluoro-2-methylimidazo[1,2-a]pyridin-6-yl] cinnoline-8-carboxamide hydrochloride], the AC50 in assay [1] was 0.1 to 1 µM; in assay [2] it was 1 to 10 µM.
Take `Cc1cn2cc(NC(=O)c3ccc(N4CCNCC4)c4ccnnc34)cc(Cl)c2n1` [Compound 124, N-[8-chloro-2-methylimidazo[1,2-a]pyridin-6-yl]-5-(piperazin-1-yl)cinnoline-8-carboxamide]: the AC50 in assay [1] and in assay [2] was 1 to 10 µM in each case. The IC50 is 1 to 10 µM in the assay with Target C CJ mRNA, under 0.1 µM in the assay on SMN2 CJ mRNA and 1 to 10 µM in the assay with HTT CJ mRNA.
As for `Cc1cn2cc(NC(=O)c3ccc(N4CCNC(C)C4)c4nccnc34)cc(F)c2n1` (stereo not drawn) [Compound 157, N-[8-fluoro-2-methylimidazo[1,2-a]pyridin-6-yl]-8-(3-methylpiperazin-1-yl)quinoxaline-5-carboxamide], the AC50 in assay [1] and in assay [2] was 0.1 to 1 µM in each case. Further, the IC50 in the assay with Target C CJ mRNA is 1 to 10 µM; in the assay on SMN2 CJ mRNA, under 0.1 µM; in the assay with HTT CJ mRNA it was 0.1 to 1 µM.
As for `Cc1cn2cc(NC(=O)c3ccc(N4CCNC5(CC5)C4)c4ccnnc34)cc(F)c2n1` [Compound 105, 5-[4,7-diazaspiro [2.5]octan-7-yl]-N-[8-fluoro-2-methylimidazo[1,2-a]pyridin-6-yl] cinnoline-8-carboxamide hydrochloride], the AC50 in assay [1] and in assay [2] was 1 to 10 µM in each case.
Take `Cc1cn2cc(NC(=O)c3ccc(N4CCC(N(C)C)CC4)c4ccnnc34)cc(F)c2n1` [Compound 137, 5-[4-(dimethylamino)piperidin-1-yl]-N-[8-fluoro-2-methylimidazo[1,2-a]pyridin-6-yl] cinnoline-8-carboxamide]: the AC50 in assay [1] and in assay [2] was 0.1 to 1 µM throughout. Also, the IC50 is 0.1 to 1 µM in the assay with Target C CJ mRNA, under 0.1 µM in the assay on SMN2 CJ mRNA and 0.1 to 1 µM with HTT CJ mRNA.
As for `Cc1cn2cc(NC(=O)c3ccc(N4CCN5CCCC5C4)c4ccnnc34)cc(F)c2n1` (stereo not drawn) [Compound 107], the AC50 in assay [1] was in the range of 1 to 10 µM; in assay [2], 0.1 to 1 µM.
As for `Cc1cn2cc(NC(=O)c3ccc(N4CCNCC4)c4ncnnc34)cc(F)c2n1` [Compound 110, N-[8-fluoro-2-methylimidazo[1,2-a]pyridin-6-yl]-5-(piperazin-1-yl)-1,2,4-benzotriazine-8-carboxamide], the AC50 in assay [1] and in assay [2] was 1 to 10 µM in each case.
In the case of `CCNC1CCN(c2ccc(C(=O)Nc3cc(F)c4nc(C)cn4c3)c3nnccc23)CC1` [Compound 139, 5-[4-(ethylamino)piperidin-1-yl]-N-[8-fluoro-2-methylimidazo[1,2-a]pyridin-6-yl]cinnoline-8-carboxamide], the AC50 in assay [1] and in assay [2] was 1 to 10 µM throughout.
Regarding `CCC1CN(c2ccc(C(=O)Nc3cc(F)c4nc(C)cn4c3)c3nnccc23)CCN1` (stereo not drawn) [Compound 130, 5-(3-ethylpiperazin-1-yl)-N-[8-fluoro-2-methylimidazo[1,2-a]pyridin-6-yl] cinnoline-8-carboxamide hydrochloride], the concentration at half-maximal activity (AC50) in assay [1] and in assay [2] was 1 to 10 µM throughout. Further, the IC50 is under 0.1 µM with SMN2 CJ mRNA and 1 to 10 µM with HTT CJ mRNA.
For the molecule `Cc1cn2cc(NC(=O)c3ccc(N4CCN(C)C(C)C4)c4ccnnc34)cc(F)c2n1` (stereo not drawn) [Compound 129, 5-(3,4-dimethylpiperazin-1-yl)-N-[8-fluoro-2-methylimidazo [1,2-a]pyridin-6-yl]cinnoline-8-carboxamide], the AC50 in assay [1] and in assay [2] was 1 to 10 µM each time. For the same molecule, the IC50 in the assay on SMN2 CJ mRNA is under 0.1 µM; in the assay on HTT CJ mRNA it was 1 to 10 µM.
Regarding `Cc1cn2cc(NC(=O)c3ccc(N4CC(C)(C)NC(C)(C)C4)c4ccnnc34)cc(F)c2n1` [Compound 104, N-[8-fluoro-2-methylimidazo[1,2-a]pyridin-6-yl]-5-(3,3,5,5-tetramethylpiperazin-1-yl) cinnoline-8-carboxamide], the AC50 in assay [1] and in assay [2] was 1 to 10 µM throughout.
Regarding `Cc1cn2cc(NC(=O)c3ccc(N(C)C4CC(C)(C)NC(C)(C)C4)c4ccnnc34)cc(F)c2n1` [Compound 135, N-[8-fluoro-2-methylimidazo[1,2-a]pyridin-6-yl]-5-[methyl(2,2,6,6-tetramethylpiperidin-4-yl)amino]cinnoline-8-carboxamide], the concentration at half-maximal activity (AC50) lay in the range of 0.1 to 1 µM in assay [1] and 1 to 10 µM in assay [2].
For `Cc1cn2cc(NC(=O)c3ccc(N(C)C4CCN(C)CC4)c4ccnnc34)cc(F)c2n1` [Compound 136, N-[8-fluoro-2-methylimidazo[1,2-a]pyridin-6-yl]-5-[methyl(1-methylpiperidin-4-yl)amino] cinnoline-8-carboxamide], in that order: 1 to 10 µM and 1 to 10 µM.
Turning to `Cc1cn2cc(-c3ccc(N4CCNCC4)c4ccc(O)nc34)cc(F)c2n1` [Compound 144, 8-[8-fluoro-2-methylimidazo[1,2-a]pyridin-6-yl]-5-(piperazin-1-yl)quinolin-2-ol], the AC50 in assay [1] and in assay [2] was over 10 µM in each case. Besides, the IC50 with SMN2 CJ mRNA and with HTT CJ mRNA was over 10 µM throughout.
Take `COc1ccc2c(N3CCNCC3)ccc(-c3cc(F)c4nc(C)cn4c3)c2n1` [Compound 114, 8-[8-fluoro-2-methylimidazo[1,2-a]pyridin-6-yl]-2-methoxy-5-(piperazin-1-yl) quinoline]: the AC50 in assay [1] and in assay [2] was over 10 µM throughout. The IC50 in the assay with SMN2 CJ mRNA and in the assay on HTT CJ mRNA was over 10 µM throughout.
On to `Cc1cn2cc(NC(=O)c3ccc(N4CCC(NC(C)(C)C)C4)c4ccnnc34)cc(F)c2n1` (stereo not drawn) [Compound 109, 5-[3-(tert-butylamino)pyrrolidin-1-yl]-N-[8-fluoro-2-methylimidazo[1,2-a]pyridin-6-yl]cinnoline-8-carboxamide], for which the AC50 in assay [1] and in assay [2] was 1 to 10 µM each time. For the same molecule, the results for the IC50 in the assay on SMN2 CJ mRNA and with HTT CJ mRNA were 0.1 to 1 µM and 1 to 10 µM, respectively.

For the origin of these results see patent US20240226098A1, “COMPOUNDS AND METHODS FOR MODULATING SPLICING” (REMIX THERAPEUTICS INC., priority 2020, published 2024).
